Patent US12084444B2, “Spiro-lactam NMDA modulators and methods of using same” (Tenacia Biotechnology (Hong Kong) Co., Limited, priority 2016, dated 2024)

Experiments:
[1] = target: T1, NMDAR2A expressing HEK cell membranes (Homo sapiens, UniProt Q05586+Q12879); assay: NMDAR agonist assay, [3H]MK-801 binding, NMDAR2A; format: biochemical; set-up: key to NMDAR2A B: log EC50: 0=−; ≥1×10^−9 M (e.g., −8)=+; <1×10^−9 M (e.g., −10)=++; conditions: 0.25 h, 50 μM glutamate; read-out: NMDAR2A A: % maximal [3H]MK-801 binding relative to 1 mM glycine
T1 construct: expressed in transfected cells; host or cells: HEK cells (membrane extract)
Summary of the method: (§1)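 HEK membranes (300 μg protein) expressing each subtype were preincubated 15 min at 25 °C with 50 μM glutamate and compound (1×10^−15–1×10^−7 M) or 1 mM glycine. [3H]MK-801 (0.3 μCi) binding then ran 15 min under nonequilibrium conditions, followed by filtration. EC50 and % maximal binding against 1 mM glycine came from three-parameter fits of baseline-subtracted DPM (N=2).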

[2] = target: T2, NMDAR2A expressing HEK cell membranes (Homo sapiens, UniProt Q12879); assay: NMDAR agonist assay, [3H]MK-801 binding, NMDAR2A; format: biochemical; set-up: key to NMDAR2A B: log EC50: 0=−; ≥1×10^−9 M (e.g., −8)=+; <1×10^−9 M (e.g., −10)=++; conditions: 50 μM glutamate
T2 construct: expressed in transfected cells; host or cells: HEK cells (membrane extract)
Summary of the method: as §1

[3] = target: T3, NMDAR2B expressing HEK cell membranes (Homo sapiens, UniProt Q05586+Q13224); assay: NMDAR agonist assay, [3H]MK-801 binding, NMDAR2B; format: biochemical; conditions: 50 μM glutamate; for EC50: read-out: NMDAR2B B: log EC50 (converted); for Emax: 0.25 h, read-out: NMDAR2B A: % maximal [3H]MK-801 binding relative to 1 mM glycine
T3 construct: expressed in transfected cells; host or cells: HEK cells (membrane extract)
Summary of the method: as §1

[4] = target: T4, NMDAR2C expressing HEK cell membranes (Homo sapiens, UniProt Q14957); assay: NMDAR agonist assay, [3H]MK-801 binding, NMDAR2C; format: biochemical; conditions: 50 μM glutamate
T4 construct: expressed in transfected cells; host or cells: HEK cells (membrane extract)
Procedure: (§2) Assays were conducted as described by Moskal et al., “GLYX-13: a monoclonal antibody-derived peptide that acts as an N-methyl-D-aspartate receptor modulator,” Neuropharmacology, 49, 1077-87, 2005. These studies were designed to determine if the test compounds act to facilitate NMDAR activation in NMDAR2A, NMDAR2B, NMDAR2C or NMDAR2D expressing HEK cell membranes as measured by increases in [^3H]MK-801 binding.
(§3) In the assay, 300 μg of NMDAR expressing HEK cell membrane extract protein was preincubated for 15 minutes at 25° C. in the presence of saturating concentrations of glutamate (50 μM) and varying concentrations of test compound (1×10^−15 M-1×10^−7 M), or 1 mM glycine. Following the addition of 0.3 μCi of [^3H]MK-801 (22.5 Ci/mmol), reactions were again incubated for 15 minutes at 25° C. (nonequilibrium conditions). Bound and free [^3H]MK-801 were separated via rapid filtration using a Brandel apparatus.
In analyzing the data, the DPM (disintegrations per minute) of [^3H]MK-801 remaining on the filter were measured for each concentration of test compound or for 1 mM glycine. The DPM values for each concentration of a ligand (N=2) were averaged. The baseline value was determined from the best fit curve of the DPM values modeled using the GraphPad program and the log(agonist) vs. response(three parameters) algorithm was then subtracted from all points in the dataset. The % maximal [^3H]MK-801 binding was then calculated relative to that of 1 mM glycine: all baseline subtracted DPM values were divided by the average value for 1 mM glycine. The EC50 and % maximal activity were then obtained from the best fit curve of the % maximal [^3H]MK-801 binding data modelled using the GraphPad program and the log(agonist) vs. response(three parameters) algorithm. […]

[5] = target: T5, NMDAR2D expressing HEK cell membranes (Homo sapiens, UniProt O15399); assay: NMDAR agonist assay, [3H]MK-801 binding, NMDAR2D; format: biochemical; conditions: 50 μM glutamate
T5 construct: expressed in transfected cells; host or cells: HEK cells (membrane extract)
Procedure: as §2, §3
(§4) In analyzing the data, the DPM (disintegrations per minute) of [^3H]MK-801 remaining on the filter were measured for each concentration of test compound or for 1 mM glycine. The DPM values for each concentration of a ligand (N=2) were averaged. The baseline value was determined from the best fit curve of the DPM values modeled using the GraphPad program and the log(agonist) vs. response(three parameters) algorithm was then subtracted from all points in the dataset. The % maximal [^3H]MK-801 binding was then calculated relative to that of 1 mM glycine: all baseline subtracted DPM values were divided by the average value for 1 mM glycine. The EC50 and % maximal activity were then obtained from the best fit curve of the % maximal [^3H]MK-801 binding data modelled using the GraphPad program and the log(agonist) vs. response(three parameters) algorithm.
(§5) The tables below summarize the results for the wild type NMDAR agonists NMDAR2A, NMDAR2B, NMDAR2C, and NMDAR2D, and whether the compound is not an agonist (−), is an agonist (+), or is a strong agonist (++), where column A is based on the % maximal [^3H]MK-801 binding relative to 1 mM glycine (−=0; <100%=+; and >100%=++); and column B is based on log EC50 values (0=−; ≥1×10^−9 M (e.g., −8)=+; and <1×10^−9 M (e.g., −10)=++).

[6] = target: T6, NMDAR2D expressing HEK cell membranes (Homo sapiens, UniProt O15399+Q05586); assay: NMDAR agonist assay, [3H]MK-801 binding, NMDAR2D; format: biochemical; conditions: 50 μM glutamate; read-out: NMDAR2D B: log EC50 (converted)
T6 construct: expressed in transfected cells; host or cells: HEK cells (membrane extract)
Procedure: as §2, §3, §4, §5

IV pharmacokinetics = assay: IV pharmacokinetics; set-up: species or system Sprague Dawley rats; conditions: Sprague Dawley, in vivo, rat, 2 mg/kg, normal saline; for Vd: read-out: Vss
Procedure: Sprague Dawley rats were dosed intravenously using a normal saline formulation containing 2 mg/kg of the compounds identified in the below table. The table below summarizes the results of the IV pharmacokinetics.

[7] = Oral pharmacokinetics (plasma, brain, CSF); format: in vivo, Sprague Dawley rats; conditions: rat, per os, 10 mg/kg; for AUC(0-t) / bioavailability / Tmax / Cmax: Sprague Dawley, plasma, po; for Tmax: normal saline
Procedure: In another experiment, Sprague Dawley rats were dosed per os using a normal saline formulation containing 10 mg/kg of the compounds identified in the table below. Plasma, brain, and CSF samples were analyzed at various time points over a 24 hour period. The table below summarizes the results of the oral pharmacokinetics.

Sprague Dawley rats = assay: Porsolt forced swim test; format: in vivo; conditions: 0.1 mg/kg; for % reduction in float time: relative to vehicle group
Procedure: A non-clinical in vivo pharmacology study (Porsolt assay) was performed to measure antidepressant-like effects. A negative control (0.5% sodium carboxymethyl cellulose in 0.9% sterile saline vehicle) and a positive control (fluoxetine) are shown for comparison against test compound. The study allowed for the evaluation of the effects of each compound on the Porsolt forced swim test as assessed by the rats' response (reduced floating time) during a 5-minute swimming test.
Male 2-3 month old Sprague Dawley rats were used (Harlan, Indianapolis, IN). Rats were housed in Lucite cages with aspen wood chip bedding, maintained on a 12:12 light:dark cycle (lights on at 5 AM), and given ad libitum access to Purina lab chow (USA) and tap water throughout the study.
The Porsolt forced swim test adapted for use in rats was performed as described by Burgdorf et al., (The long-lasting antidepressant effects of rapastinel (GLYX-13) are associated with a metaplasticity process in the medial prefrontal cortex and hippocampus. Neuroscience 308:202-211, 2015). Animals were placed in a 46 cm tall×20 cm in diameter clear glass tube filled to 30 cm with tap water (23±1° C.) for 15 min on the first day (habituation) and 5 min on the subsequent test day. Positive control fluoxetine was dosed 3 times (24 h, 5 h and 1 h) prior to testing. Animals were tested 1 h or 24 h post-dosing with the test compounds or vehicle. Animals received a 15 min habituation session 1 day before the 5 min test. Water was changed after every other animal. Animals were videotaped, and floating time as defined as the minimal amount of effort required to keep the animals head above water was scored offline by a blinded experimenter with high inter-rater reliability (Pearson's r>0.9).
Each compound tested at dose level shown. Significance vs. vehicle group for each experiment is marked. […] A compound marked “No” was not statistically significant from vehicle. Data was averaged for test compound and vehicle groups (N approximately 8 per group) and the percent reduction in floating for group treated with test compound relative to group treated with vehicle is shown.

T3 sequence (Q13224 27-1484, other chains not shown): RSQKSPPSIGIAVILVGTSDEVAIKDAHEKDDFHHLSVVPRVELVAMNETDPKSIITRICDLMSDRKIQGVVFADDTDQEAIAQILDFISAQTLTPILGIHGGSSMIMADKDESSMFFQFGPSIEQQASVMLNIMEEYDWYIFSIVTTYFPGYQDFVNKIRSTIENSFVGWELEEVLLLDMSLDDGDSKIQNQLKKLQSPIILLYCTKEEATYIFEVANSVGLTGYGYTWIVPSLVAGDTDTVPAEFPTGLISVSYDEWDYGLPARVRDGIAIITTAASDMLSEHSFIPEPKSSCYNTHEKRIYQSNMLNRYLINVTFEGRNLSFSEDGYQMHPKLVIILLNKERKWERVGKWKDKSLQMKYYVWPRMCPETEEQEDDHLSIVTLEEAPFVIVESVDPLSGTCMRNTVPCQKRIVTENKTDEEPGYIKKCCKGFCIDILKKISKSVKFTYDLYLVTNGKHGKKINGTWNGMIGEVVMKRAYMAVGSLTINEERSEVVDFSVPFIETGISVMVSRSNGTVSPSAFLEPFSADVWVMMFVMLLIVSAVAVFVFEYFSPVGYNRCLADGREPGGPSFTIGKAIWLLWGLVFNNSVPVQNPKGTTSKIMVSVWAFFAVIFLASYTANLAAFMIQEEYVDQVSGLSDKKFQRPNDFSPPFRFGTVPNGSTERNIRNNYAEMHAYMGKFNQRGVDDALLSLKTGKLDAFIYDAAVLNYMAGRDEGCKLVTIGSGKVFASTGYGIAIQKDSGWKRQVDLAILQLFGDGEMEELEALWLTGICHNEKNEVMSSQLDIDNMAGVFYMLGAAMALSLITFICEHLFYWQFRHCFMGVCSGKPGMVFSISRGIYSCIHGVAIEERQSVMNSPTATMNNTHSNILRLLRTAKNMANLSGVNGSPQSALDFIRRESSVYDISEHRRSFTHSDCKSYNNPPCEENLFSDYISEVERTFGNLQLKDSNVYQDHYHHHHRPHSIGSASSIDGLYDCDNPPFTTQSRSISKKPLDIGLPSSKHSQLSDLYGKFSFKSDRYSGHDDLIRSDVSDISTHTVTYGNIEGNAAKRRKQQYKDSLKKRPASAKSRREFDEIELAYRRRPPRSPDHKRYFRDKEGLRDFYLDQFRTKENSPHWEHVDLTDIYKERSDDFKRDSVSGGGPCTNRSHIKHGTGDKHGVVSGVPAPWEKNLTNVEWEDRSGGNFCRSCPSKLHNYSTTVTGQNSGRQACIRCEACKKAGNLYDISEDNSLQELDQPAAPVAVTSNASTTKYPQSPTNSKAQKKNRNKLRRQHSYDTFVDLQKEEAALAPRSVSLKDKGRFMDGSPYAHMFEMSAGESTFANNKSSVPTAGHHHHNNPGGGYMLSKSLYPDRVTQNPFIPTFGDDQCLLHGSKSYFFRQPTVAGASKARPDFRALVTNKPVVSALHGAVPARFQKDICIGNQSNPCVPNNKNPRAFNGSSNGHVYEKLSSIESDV
T6 sequence (O15399 28-1336, other chains not shown): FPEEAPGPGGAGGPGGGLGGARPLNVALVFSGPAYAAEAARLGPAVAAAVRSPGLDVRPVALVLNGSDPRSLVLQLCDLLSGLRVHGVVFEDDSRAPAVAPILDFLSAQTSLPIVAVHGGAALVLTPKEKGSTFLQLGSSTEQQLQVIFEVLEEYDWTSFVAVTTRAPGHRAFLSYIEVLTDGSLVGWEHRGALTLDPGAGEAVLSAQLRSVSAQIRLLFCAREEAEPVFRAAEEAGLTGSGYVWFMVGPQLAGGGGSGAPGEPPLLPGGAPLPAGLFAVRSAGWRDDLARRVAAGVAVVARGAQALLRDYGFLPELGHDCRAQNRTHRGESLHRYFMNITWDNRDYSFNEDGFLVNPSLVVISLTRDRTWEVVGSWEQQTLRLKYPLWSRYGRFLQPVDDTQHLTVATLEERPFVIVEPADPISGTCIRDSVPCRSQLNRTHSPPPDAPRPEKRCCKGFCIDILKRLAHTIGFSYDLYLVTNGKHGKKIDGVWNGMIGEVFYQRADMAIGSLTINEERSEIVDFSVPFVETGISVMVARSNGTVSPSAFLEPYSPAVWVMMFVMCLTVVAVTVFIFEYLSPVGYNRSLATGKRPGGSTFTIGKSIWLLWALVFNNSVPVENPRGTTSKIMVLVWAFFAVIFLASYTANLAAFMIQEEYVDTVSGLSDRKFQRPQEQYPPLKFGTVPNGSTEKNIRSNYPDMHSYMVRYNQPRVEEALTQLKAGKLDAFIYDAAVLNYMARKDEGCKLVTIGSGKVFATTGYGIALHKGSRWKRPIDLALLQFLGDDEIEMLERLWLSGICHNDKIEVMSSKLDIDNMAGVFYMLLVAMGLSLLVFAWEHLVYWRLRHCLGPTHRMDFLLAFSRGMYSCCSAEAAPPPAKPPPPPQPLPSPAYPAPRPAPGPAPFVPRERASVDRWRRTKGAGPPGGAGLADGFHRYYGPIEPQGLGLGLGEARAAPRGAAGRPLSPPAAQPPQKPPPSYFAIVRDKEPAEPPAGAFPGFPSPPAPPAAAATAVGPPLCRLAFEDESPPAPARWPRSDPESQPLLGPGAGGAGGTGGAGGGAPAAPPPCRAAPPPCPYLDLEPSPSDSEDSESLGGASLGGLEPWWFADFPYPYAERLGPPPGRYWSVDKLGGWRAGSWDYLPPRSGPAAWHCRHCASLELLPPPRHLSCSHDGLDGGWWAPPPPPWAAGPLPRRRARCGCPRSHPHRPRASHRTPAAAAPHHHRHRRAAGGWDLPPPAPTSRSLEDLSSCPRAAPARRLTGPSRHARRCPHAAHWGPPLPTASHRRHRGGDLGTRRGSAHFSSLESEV
T5 sequence (O15399 28-1336, other chains not shown): as above
T1 sequence (Q12879 23-1464, other chains not shown): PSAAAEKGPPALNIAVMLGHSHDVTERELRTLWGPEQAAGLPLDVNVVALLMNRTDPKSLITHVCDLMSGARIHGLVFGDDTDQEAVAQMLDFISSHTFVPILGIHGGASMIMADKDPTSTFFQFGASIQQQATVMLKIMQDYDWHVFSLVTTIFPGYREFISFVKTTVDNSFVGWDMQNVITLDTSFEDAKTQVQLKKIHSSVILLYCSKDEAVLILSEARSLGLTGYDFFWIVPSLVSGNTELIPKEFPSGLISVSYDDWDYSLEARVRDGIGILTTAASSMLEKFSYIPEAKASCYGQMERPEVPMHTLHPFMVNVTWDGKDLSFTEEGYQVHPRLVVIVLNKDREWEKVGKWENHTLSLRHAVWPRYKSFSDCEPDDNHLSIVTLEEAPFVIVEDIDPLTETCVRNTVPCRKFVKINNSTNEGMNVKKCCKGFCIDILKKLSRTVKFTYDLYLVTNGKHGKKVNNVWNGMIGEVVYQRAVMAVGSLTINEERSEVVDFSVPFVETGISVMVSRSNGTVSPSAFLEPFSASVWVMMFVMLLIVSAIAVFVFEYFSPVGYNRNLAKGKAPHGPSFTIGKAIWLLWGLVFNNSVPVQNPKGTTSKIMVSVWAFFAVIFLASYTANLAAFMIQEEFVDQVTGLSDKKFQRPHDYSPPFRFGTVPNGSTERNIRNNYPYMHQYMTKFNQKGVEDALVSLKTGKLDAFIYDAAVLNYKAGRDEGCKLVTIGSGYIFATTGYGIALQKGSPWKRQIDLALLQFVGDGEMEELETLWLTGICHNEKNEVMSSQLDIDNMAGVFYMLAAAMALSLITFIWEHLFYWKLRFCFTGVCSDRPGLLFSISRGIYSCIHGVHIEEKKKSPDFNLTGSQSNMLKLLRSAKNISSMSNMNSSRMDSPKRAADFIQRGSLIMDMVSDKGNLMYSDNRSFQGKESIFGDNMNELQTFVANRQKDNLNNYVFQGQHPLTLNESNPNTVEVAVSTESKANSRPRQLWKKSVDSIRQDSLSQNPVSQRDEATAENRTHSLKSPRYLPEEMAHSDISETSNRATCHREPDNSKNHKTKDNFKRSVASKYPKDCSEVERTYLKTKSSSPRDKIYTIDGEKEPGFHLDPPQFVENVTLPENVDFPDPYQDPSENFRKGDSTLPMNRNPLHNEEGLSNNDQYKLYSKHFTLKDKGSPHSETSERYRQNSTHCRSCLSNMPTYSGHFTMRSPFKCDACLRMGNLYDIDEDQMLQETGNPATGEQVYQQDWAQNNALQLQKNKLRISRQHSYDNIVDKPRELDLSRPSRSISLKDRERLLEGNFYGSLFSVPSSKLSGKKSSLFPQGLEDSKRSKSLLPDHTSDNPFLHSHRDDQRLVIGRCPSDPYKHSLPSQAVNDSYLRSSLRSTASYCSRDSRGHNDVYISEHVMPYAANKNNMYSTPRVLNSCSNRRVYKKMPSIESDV

Emax [1] [%] | NMDAR2A B: log EC50 [2] | EC50 [3] [nM] | Emax [3] [%] | NMDAR2C A: % maximal [3H]MK-801 binding relative to 1 mM glycine [4] | NMDAR2D A: % maximal [3H]MK-801 binding relative to 1 mM glycine [5] | EC50 [6] [nM] | AUC(0-t) (IV pharmacokinetics) [ng·h/mL] | C0 (IV pharmacokinetics) [ng/mL] | clearance (IV pharmacokinetics) [mL/min/kg] | half-life (IV pharmacokinetics) [min] | Vd (IV pharmacokinetics) [L/kg] | AUC(0-t) [7] [ng·h/mL] | bioavailability [7] [%] | Tmax [7] [min] | Cmax [7] [ng/mL] | SMILES | Significance vs. vehicle (Sprague Dawley rats; 1 h post-dose) | % reduction in float time (Sprague Dawley rats; 1 h post-dose) [%] | Significance vs. vehicle (Sprague Dawley rats; 24 h post-dose) | % reduction in float time (Sprague Dawley rats; 24 h post-dose) [%] | also measured
0 | − | < 1 | < 100 | − (−=0) | + (<100%=+) | ≥ 1 | 3430 | 2340 | 9.69 | 67.2 | 0.76 | 15500 | 90 | 19.8 | 8920 | COc1ccc(CN2C[C@]3(CCNC(=O)C3)C2=O)cc1 [AA-1, 2-(4-methoxybenzyl)-2,7-diazaspiro[3.5]nonane-1,6-dione] | Yes (found to be statistically significant (p<=0.05) from vehicle at dose level shown) | 74.4 | Yes (found to be statistically significant (p<=0.05) from vehicle at dose level shown) | 69.50 | 
0 | − | < 1 | < 100 | − (−=0) | + (<100%=+) | < 1 | 6300 | 5790 | 5.28 | 199 | 0.56 | 17800 | 57 | 40.2 | 5810 | COc1ccc(CN2CC3(CCNC(=O)C3)C2=O)cc1 (racemic) [AA-rac, 2-(4-methoxybenzyl)-2,7-diazaspiro[3.5]nonane-1,6-dione] | Yes (found to be statistically significant (p<=0.05) from vehicle at dose level shown) | 77.4 | Yes (found to be statistically significant (p<=0.05) from vehicle at dose level shown) | 74.40 | CSF Cmax ([7]; CSF): 1466.9 ng/mL; Brain Cmax ([7]; brain): 951 ng/mL
